Molecules are shown by their SMILES.

The target of this assay is T1, cloned human GLP-1 receptor (Homo sapiens, UniProt P43220).
T1 construct: expressed in transfected cells; host or cells: CHO or HEK-293 cells
In words: Functional cell-based assay: cAMP functional assay. The following applies: for Emax: 0.5 h, percentage relative to maximal GLP-1-induced cAMP accumulation, na = not active in the assay, read-out: % activation. The essentials: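 Monolayer cells incubated 30 min at 37 °C with compounds (0.0001–100 μM) in IMDM containing 100 μM RO 20-1724 PDE inhibitor, 0.1% BSA and 2% DMSO. cAMP measured by HTRF.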

T1 sequence (P43220 24-463): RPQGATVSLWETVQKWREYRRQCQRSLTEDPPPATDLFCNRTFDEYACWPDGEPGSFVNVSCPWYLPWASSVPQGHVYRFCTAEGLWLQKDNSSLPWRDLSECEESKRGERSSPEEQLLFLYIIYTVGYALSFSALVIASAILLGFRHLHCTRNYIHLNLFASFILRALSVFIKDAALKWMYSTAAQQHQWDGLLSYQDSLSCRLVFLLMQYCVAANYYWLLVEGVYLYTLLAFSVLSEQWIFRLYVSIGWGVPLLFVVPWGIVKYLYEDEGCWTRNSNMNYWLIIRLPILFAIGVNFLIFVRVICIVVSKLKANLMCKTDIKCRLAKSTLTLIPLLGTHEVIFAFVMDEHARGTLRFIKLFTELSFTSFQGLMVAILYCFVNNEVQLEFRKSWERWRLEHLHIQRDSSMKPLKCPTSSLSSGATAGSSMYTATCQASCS

For the compound `N#Cc1ccc(-c2ccc(C[C@H](NC(=O)[C@@H]3Cc4cc5c(cc4CN3S(=O)(=O)c3ccccc3[N+](=O)[O-])OC(c3ccc(OCc4ccc(Cl)c(Cl)c4)cc3)C(=O)N5)C(=O)O)cc2)cc1` (stereo partly drawn) [Example 51, (S)-3-(4′-Cyano-biphenyl-4-yl)-2-{[(S)-3-[4-(3,4-dichloro-benzyloxy)-phenyl]-6-(2-nitro-benzenesulfonyl)-2-oxo-2,3,5,6,7,8-hexahydro-1H-4-oxa-1,6-diaza-anthracene-7-carbonyl]-amino}-propionic acid], the EC50 is 820 nM and the Emax was 30%.

On to `N#Cc1ccc(-c2ccc(C[C@H](NC(=O)[C@@H]3Cc4cc5c(cc4CN3S(=O)(=O)c3cccc([N+](=O)[O-])c3)OC(c3ccc(OCc4ccc(Cl)c(Cl)c4)cc3)C(=O)N5)C(=O)O)cc2)cc1` (stereo partly drawn) [Example 52, (S)-3-(4′-Cyano-biphenyl-4-yl)-2-{[(S)-3-[4-(3,4-dichloro-benzyloxy)-phenyl]-6-(3-nitro-benzenesulfonyl)-2-oxo-2,3,5,6,7,8-hexahydro-1H-4-oxa-1,6-diaza-anthracene-7-carbonyl]-amino}-propionic acid], for which the EC50 came to 810 nM and the Emax is 33%.

Consider `N#Cc1ccc(-c2ccc(C[C@H](NC(=O)[C@@H]3Cc4cc5c(cc4CN3Cc3ccccc3C#N)OC(c3ccc(OCc4ccc(Cl)c(Cl)c4)cc3)C(=O)N5)C(=O)O)cc2)cc1` (stereo partly drawn) [Example 53, (S)-2-({(S)-6-(2-Cyano-benzyl)-3-[4-(3,4-dichloro-benzyloxy)-phenyl]-2-oxo-2,3,5,6,7,8-hexahydro-1H-4-oxa-1,6-diaza-anthracene-7-carbonyl}-amino)-3-(4′-cyano-biphenyl-4-yl)-propionic acid], for which the concentration giving a half-maximal response (EC50) was 1040 nM and the Emax was found to be 52.5%.

As for `N#Cc1ccc(-c2ccc(C[C@H](NC(=O)[C@@H]3Cc4cc5c(cc4CN3CC3CC3)OC(c3ccc(OCc4ccc(Cl)c(Cl)c4)cc3)C(=O)N5)C(=O)O)cc2)cc1` (stereo partly drawn) [Example 54, (S)-3-(4′-Cyano-biphenyl-4-yl)-2-({(S)-6cyclopropylmethyl-3-[4-(3,4-dichloro-benzyloxy)-phenyl]-2-oxo-2,3,5,6,7,8-hexahydro-1H-4-oxa-1,6-diaza-anthracene-7-carbonyl}-amino)-propionic acid], a half-maximal effect (EC50) was put at 1080 nM and the Emax was found to be 11.8%.

For the compound `N#Cc1ccc(-c2ccc(C[C@H](NC(=O)[C@@H]3Cc4cc5c(cc4CN3CC#Cc3ncccn3)OC(c3ccc(OCc4ccc(Cl)c(Cl)c4)cc3)C(=O)N5)C(=O)O)cc2)cc1` (stereo partly drawn) [Example 55, (S)-3-(4′-Cyano-biphenyl-4-yl)-2-{[(S)-3-[4-(3,4-dichloro-benzyloxy)-phenyl]-2-oxo-6-(3-pyrimidin-2-yl-prop-2-ynyl)-2,3,5,6,7,8-hexahydro-1H-4-oxa-1,6-diaza-anthracene-7-carbonyl]-amino}-propionic acid], the EC50 is 216 nM and the Emax was 49.4%.

As for `N#Cc1ccc(-c2ccc(C[C@H](NC(=O)[C@@H]3Cc4cc5c(cc4CN3CC#Cc3ccsc3)OC(c3ccc(OCc4ccc(Cl)c(Cl)c4)cc3)C(=O)N5)C(=O)O)cc2)cc1` (stereo partly drawn) [Example 56, (S)-3-(4′-Cyano-biphenyl-4-yl)-2-{[(S)-3-[4-(3,4-dichloro-benzyloxy)-phenyl]-2-oxo-6-(3-thiophen-3-yl-prop-2-ynyl)-2,3,5,6,7,8-hexahydro-1H-4-oxa-1,6-diaza-anthracene-7-carbonyl]-amino}-propionic acid], a half-maximal response (EC50) required 370 nM and the Emax came to 40.1%.

In the case of `N#Cc1ccc(-c2ccc(C[C@H](NC(=O)[C@@H]3Cc4cc5c(cc4CN3C(=O)c3ccccc3)OC(c3ccc(OCc4c(Cl)cccc4Cl)cc3)C(=O)N5)C(=O)O)cc2)cc1` (stereo partly drawn) [Example 57, (S)-2-({(S)-6-Benzoyl-3-[4-(2,6-dichloro-benzyloxy)-phenyl]-2-oxo-2,3,5,6,7,8-hexahydro-1H-4-oxa-1,6-diaza-anthracene-7-carbonyl}-amino)-3-(4′-cyano-biphenyl-4-yl)-propionic acid], the half-maximal effective concentration (EC50) came to 570 nM and the Emax was 20%.

As to `N#Cc1ccc(-c2ccc(C[C@H](NC(=O)[C@@H]3Cc4cc5c(cc4CN3C(=O)c3ccccc3)OC(c3ccc(OCc4cc(Cl)ccc4Cl)cc3)C(=O)N5)C(=O)O)cc2)cc1` (stereo partly drawn) [Example 58, (S)-2-({(S)-6-Benzoyl-3-[4-(2,5-dichloro-benzyloxy)-phenyl]-2-oxo-2,3,5,6,7,8-hexahydro-1H-4-oxa-1,6-diaza-anthracene-7-carbonyl}-amino)-3-(4′-cyano-biphenyl-4-yl)-propionic acid], the 50% effective concentration (EC50) came out at 565 nM and the Emax amounted to 45%.

On to `N#Cc1ccc(-c2ccc(C[C@H](NC(=O)[C@@H]3Cc4cc5c(cc4CN3C(=O)c3ccccc3)OC(c3ccc(OCc4cccc(Cl)c4)cc3)C(=O)N5)C(=O)O)cc2)cc1` (stereo partly drawn) [Example 59, (S)-2-({(S)-6-Benzoyl-3-[4-(3-chloro-benzyloxy)-phenyl]-2-oxo-2,3,5,6,7,8-hexahydro-1H-4-oxa-1,6-diaza-anthracene-7-carbonyl}-amino)-3-(4′-cyano-biphenyl-4-yl)-propionic acid], for which it took 750 nM to reach a half-maximal effect (EC50) and the Emax amounted to 52%.

Consider `N#Cc1ccc(-c2ccc(C[C@H](NC(=O)[C@@H]3Cc4cc5c(cc4CN3C(=O)c3ccccc3)OC(c3ccc(OCc4ccc(Cl)cc4)cc3)C(=O)N5)C(=O)O)cc2)cc1` (stereo partly drawn) [Example 60, (S)-2-({(S)-6-Benzoyl-3-[4-(4-chloro-benzyloxy)-phenyl]-2-oxo-2,3,5,6,7,8-hexahydro-1H-4-oxa-1,6-diaza-anthracene-7-carbonyl}-amino)-3-(4′-cyano-biphenyl-4-yl)-propionic acid], for which the EC50 was determined as 1630 nM and the Emax stood at 62%.

In the case of `N#Cc1ccc(-c2ccc(C[C@H](NC(=O)[C@@H]3Cc4cc5c(cc4CN3C(=O)c3ccccc3)OC(c3ccc(OCc4ccc(Cl)c(C(F)(F)F)c4)cc3)C(=O)N5)C(=O)O)cc2)cc1` (stereo partly drawn) [Example 61, (S)-2-({(S)-6-Benzoyl-3-[4-(4-chloro-3-trifluoromethyl-benzyloxy)-phenyl]-2-oxo-2,3,5,6,7,8-hexahydro-1H-4-oxa-1,6-diaza-anthracene-7-carbonyl}-amino)-3-(4′-cyano-biphenyl-4-yl)-propionic acid], a half-maximal response (EC50) required 850 nM and the Emax amounted to 29%.

As for `COc1ccc(COc2ccc(C3Oc4cc5c(cc4NC3=O)C[C@@H](C(=O)N[C@@H](Cc3ccc(-c4ccc(C#N)cc4)cc3)C(=O)O)N(C(=O)c3ccccc3)C5)cc2)cc1C(F)(F)F` (stereo partly drawn) [Example 62, (S)-2-({(S)-6-Benzoyl-3-[4-(4-methoxy-3-trifluoromethyl-benzyloxy)-phenyl]-2-oxo-2,3,5,6,7,8-hexahydro-1H-4-oxa-1,6-diaza-anthracene-7-carbonyl}-amino)-3-(4′-cyano-biphenyl-4-yl)-propionic acid], the half-maximal effective concentration (EC50) came to 1000 nM and the Emax is 15%.

Turning to `CC(C)(C)OC(=O)N1Cc2cc3c(cc2C[C@H]1C(=O)N[C@@H](Cc1ccc(-c2ccc(C#N)cc2)cc1)C(=O)O)NC(=O)C(c1ccc(OCc2cnc(Cl)c(Cl)c2)cc1)O3` (stereo partly drawn) [Example 63, (S)-7-[(S)-1-Carboxy-2-(4′-cyano-biphenyl-4-yl)-ethylcarbamoyl]-3-[4-(5,6-dichloro-pyridin-3-ylmethoxy)-phenyl]-2-oxo-1,2,3,5,7,8-hexahydro-4-oxa-1,6-diaza-anthracene-6-carboxylic acid tert-butyl ester], it took 476 nM to reach a half-maximal effect (EC50) and the Emax is 23%.

As for `N#Cc1ccc(-c2ccc(C[C@H](NC(=O)[C@@H]3Cc4cc5c(cc4CN3C(=O)c3ccccc3)OC(c3ccc(OCc4cnc(Cl)c(Cl)c4)cc3)C(=O)N5)C(=O)O)cc2)cc1` (stereo partly drawn) [Example 64, (S)-2-({(S)-6-Benzoyl-3-[4-(5,6-dichloro-pyridin-3-ylmethoxy)-phenyl]-2-oxo-2,3,5,6,7,8-hexahydro-1H-4-oxa-1,6-diaza-anthracene-7-carbonyl}-amino)-3-(4′-cyano-biphenyl-4-yl)-propionic acid], the EC50 was found to be 190 nM and the Emax was determined as 36%.

`N#Cc1ccc(-c2ccc(C[C@H](NC(=O)[C@@H]3Cc4cc5c(cc4CN3Cc3ccccc3)OC(c3ccc(OCc4cnc(Cl)c(Cl)c4)cc3)C(=O)N5)C(=O)O)cc2)cc1` (stereo partly drawn) [Example 65, (S)-2-({(8)-6-Benzyl-3-[4-(5,6-dichloro-pyridin-3-ylmethoxy)-phenyl]-2-oxo-2,3,5,6,7,8-hexahydro-1H-4-oxa-1,6-diaza-anthracene-7-carbonyl}-amino)-3-(4′-cyano-biphenyl-4-yl)-propionic acid]: the response was half-maximal at 220 nM (EC50) and the Emax stood at 32%.

Take `N#Cc1ccc(-c2ccc(C[C@H](NC(=O)[C@@H]3Cc4cc5c(cc4CN3C(=O)c3cccs3)OC(c3ccc(OCc4cnc(Cl)c(Cl)c4)cc3)C(=O)N5)C(=O)O)cc2)cc1` (stereo partly drawn) [Example 66, (S)-3-(4′-Cyano-biphenyl-4-yl)-2-{[(S)-3-[4-(5,6-dichloro-pyridin-3-ylmethoxy)-phenyl]-2-oxo-6-(thiophene-2-carbonyl)-2,3,5,6,7,8-hexahydro-1H-4-oxa-1,6-diaza-anthracene-7-carbonyl]-amino}-propionic acid]: the half-maximal effective concentration (EC50) came out at 950 nM and the Emax came out at 21%.

Turning to `N#Cc1ccc(-c2ccc(C[C@H](NC(=O)[C@@H]3Cc4cc5c(cc4CN3Cc3nccs3)OC(c3ccc(OCc4cccc(Cl)c4)cc3)C(=O)N5)C(=O)O)cc2)cc1` (stereo partly drawn) [Example 67, (S)-2-({(S)-3-[4-(3-Chloro-benzyloxy)-phenyl]-2-oxo-6-thiazol-2-ylmethyl-2,3,5,6,7,8-hexahydro-1H-4-oxa-1,6-diaza-anthracene-7-carbonyl}-amino)-3-(4′-cyano-biphenyl-4-yl)-propionic acid], the half-maximal effective concentration (EC50) was 1150 nM and the Emax amounted to 55%.
